In patent US8247211B2, “Glycopeptide antibiotics” (American Cyanamid Company, priority 2001, dated 2012):
≈ marks a conversion by molar mass, not a printed value.

What was measured:
[1] = tested on: Staphylococcus aureus-SMITH (GC 4543); test: Acute lethal infection in mice (ED50); assay type: in vivo; settings: female CD-1 mice, intraperitoneal challenge, intravenous dose 30 min. after infection, 7 day survival ratios
How it was run: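 Lethal systemic infection model: female CD-1 mice, 20 ± 1-2 g, intraperitoneal challenge. Single intravenous treatment 30 min after infection; 7-day survival, pooled from 3 tests, gives ED50.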

Streptococcus sp. = test: In vitro antibacterial evaluation: minimum inhibitory concentration (MIC), broth dilution method; assay type: cell-based; settings: 18 hours at 35° C.
How it was run: (§1)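 First, organisms are seeded at 5×10^5 CFU/mL into Muller-Hinton II […]. Next, antibiotic is applied across 64-0.06 μg/mL by broth dilution (NCCLS M7-A2). Finally, the lowest inhibitory concentration is recorded as MIC.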

Staphylococcus sp. = test: as above; assay type: cell-based
How it was run: as §1

Escherichia coli = test: as above; assay type: cell-based; settings: 18 hours at 35° C.
How it was run: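 NCCLS M7-A2 broth dilution; Muller-Hinton II […]; 5×10^5 CFU/mL; 64-0.06 μg/mL. MIC = lowest concentration with no growth.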

Enterococcus sp. = test: as above; assay type: cell-based; settings: 18 hours at 35° C.
How it was run: as §1

[2] = Anatomic pathology (heart and kidney histopathology) in mice; assay type: in vivo, CD-1 mice; settings: 20 mg/kg intravenously daily for 9 days, microscopic histopathology on day 10
How it was run: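 Juvenile CD-1 mice (20 days old; 5 vehicle, 5 treated) received glycopeptide antibiotic 20 mg/kg i.v. daily for 9 days. Necropsied tissues formalin-fixed, paraffin-embedded, H&E stained and examined microscopically; findings graded slight to severe versus controls.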

[3] = broth dilution, inoculum 5×10^5 CFU/mL

## CC(C1CCCCC1)C1NC(=O)CNC(=O)C(CO)NC(=O)C(C(O)C2CNC(=N)N2C2OC(CO)C(O)C(O)C2O)NC(=O)C(C(O)C2CNC(=N)N2)NC(=O)C(Cc2ccc(OC3OC(CO)C(OC4OC5COC6(OC5C(O)C4O)C4CC5CC(C4)CC6C5)C(O)C3O)cc2)NC1=O (stereo not drawn) [Example 221, Cyclo[3-cyclohexyl-2-aminobutanoyl-O-[4-O-[4,6-O-(2-adamantylidene)hexopyranosyl]hexopyranosyl]tyrosyl-3-(2-iminoimidazolidin-4-yl)seryl-3-(3-hexopyranosyl-2-iminoimidazolidin-4-yl)serylserylglycyl]]
[1]
  median effective dose (ED50), Staphylococcus aureus-SMITH (GC 4543): 0.03 mg/kg
Streptococcus sp.; Streptococcus agalactiae (GC 4564)
  MIC Streptococcus agalactiae (GC 4564): <0.12 µg/mL
Streptococcus sp.; Streptococcus pneumoniae (ATCC 6301)
  MIC Streptococcus pneumoniae (ATCC 6301): <0.12 µg/mL
Streptococcus sp.; Streptococcus pneumoniae (GC 1894)
  MIC Streptococcus pneumoniae (GC 1894): <0.12 µg/mL
Streptococcus sp.; Streptococcus pneumoniae (GC 4565)
  MIC Streptococcus pneumoniae (GC 4565): <0.12 µg/mL
Streptococcus sp.; Streptococcus pyogenes (GC 4563)
  MIC Streptococcus pyogenes (GC 4563): <0.12 µg/mL
Streptococcus sp.; [3]
  MIC Streptococcus agalactiae (GC 4564): <0.12 µg/mL
  MIC Streptococcus pneumoniae (ATCC 6301): <0.12 µg/mL
  MIC Streptococcus pneumoniae (GC 1894): <0.12 µg/mL
  MIC Streptococcus pneumoniae (GC 4565): <0.12 µg/mL
  MIC Streptococcus pyogenes (GC 4563): <0.12 µg/mL
Staphylococcus sp.; strain ATCC 29213
  MIC Staphylococcus aureus (ATCC 29213): 1 µg/mL (≈ 0.698 µM)
Staphylococcus sp.; strain GC 1131
  MIC Staphylococcus aureus (GC 1131): 2 µg/mL (≈ 1.4 µM)
Staphylococcus sp.; strain GC 3051
  MIC Staphylococcus aureus (GC 3051): 2 µg/mL (≈ 1.4 µM)
Staphylococcus sp.; strain GC 3053
  MIC Staphylococcus aureus (GC 3053): 1 µg/mL (≈ 0.698 µM)
Staphylococcus sp.; strain GC 4541
  MIC Staphylococcus aureus (GC 4541): 2 µg/mL (≈ 1.4 µM)
Staphylococcus sp.; strain GC 4542
  MIC Staphylococcus aureus (GC 4542): 2 µg/mL (≈ 1.4 µM)
Staphylococcus sp.; strain GC 4543
  MIC Staphylococcus aureus-SMITH (GC 4543): 2 µg/mL (≈ 1.4 µM)
Staphylococcus sp.; strain GC 4544
  MIC Staphylococcus aureus (GC 4544): 2 µg/mL (≈ 1.4 µM)
Staphylococcus sp.; strain GC 4545
  MIC Staphylococcus aureus (GC 4545): 2 µg/mL (≈ 1.4 µM)
Staphylococcus sp.; strain GC 4546
  MIC Staphylococcus haemolyticus (GC 4546): 2 µg/mL (≈ 1.4 µM)
Staphylococcus sp.; strain GC 4547
  MIC Coagulase Negative Staphylococcus (GC 4547): 2 µg/mL (≈ 1.4 µM)
Staphylococcus sp.; strain GC 4548
  MIC Coagulase Negative Staphylococcus (GC 4548): 1 µg/mL (≈ 0.698 µM)
Staphylococcus sp.; strain GC 4549
  MIC Coagulase Negative Staphylococcus (GC 4549): 1 µg/mL (≈ 0.698 µM)
Staphylococcus sp.; strain GC 4551
  MIC Coagulase Negative Staphylococcus (GC 4551): 2 µg/mL (≈ 1.4 µM)
Escherichia coli; Escherichia coli (ATCC 25922)
  MIC Escherichia coli (ATCC 25922): 64 µg/mL (≈ 44.6 µM)
Escherichia coli; Escherichia coli (GC 4559)
  MIC Escherichia coli (GC 4559): 32 µg/mL (≈ 22.3 µM)
Escherichia coli; Escherichia coli (GC 4560)
  MIC Escherichia coli (GC 4560): 2 µg/mL (≈ 1.4 µM)
Enterococcus sp.; Enterococcus avium (GC 4558)
  MIC Enterococcus avium (GC 4558): 2 µg/mL (≈ 1.4 µM)
Enterococcus sp.; Enterococcus faecalis (ATCC 29212)
  MIC Enterococcus faecalis (ATCC 29212): 2 µg/mL (≈ 1.4 µM)
Enterococcus sp.; Enterococcus faecalis (GC 2242)
  MIC Enterococcus faecalis (GC 2242): 2 µg/mL (≈ 1.4 µM)
Enterococcus sp.; Enterococcus faecalis (GC 2691)
  MIC Enterococcus faecalis (GC 2691): 2 µg/mL (≈ 1.4 µM)
Enterococcus sp.; Enterococcus faecalis (GC 3059)
  MIC Enterococcus faecalis (GC 3059): 1 µg/mL (≈ 0.698 µM)
Enterococcus sp.; Enterococcus faecalis (GC 4552)
  MIC Enterococcus faecalis (GC 4552): 2 µg/mL (≈ 1.4 µM)
Enterococcus sp.; Enterococcus faecalis (GC 4553)
  MIC Enterococcus faecalis (GC 4553): 2 µg/mL (≈ 1.4 µM)
Enterococcus sp.; Enterococcus faecalis (GC 4554)
  MIC Enterococcus faecalis (GC 4554): 2 µg/mL (≈ 1.4 µM)
Enterococcus sp.; Enterococcus faecalis (GC 6189)
  MIC Enterococcus faecalis (GC 6189): 1 µg/mL (≈ 0.698 µM)
Enterococcus sp.; Enterococcus faecium (GC 2243)
  MIC Enterococcus faecium (GC 2243): 2 µg/mL (≈ 1.4 µM)
Enterococcus sp.; Enterococcus faecium (GC 4556)
  MIC Enterococcus faecium (GC 4556): 2 µg/mL (≈ 1.4 µM)
Enterococcus sp.; Enterococcus faecium (GC 4557)
  MIC Enterococcus faecium (GC 4557): 1 µg/mL (≈ 0.698 µM)
Enterococcus sp.; [3]
  MIC Enterococcus avium (GC 4558): 2 µg/mL (≈ 1.4 µM)
  MIC Enterococcus faecalis (ATCC 29212): 2 µg/mL (≈ 1.4 µM)
  MIC Enterococcus faecalis (GC 2242): 2 µg/mL (≈ 1.4 µM)
  MIC Enterococcus faecalis (GC 2691): 2 µg/mL (≈ 1.4 µM)
  MIC Enterococcus faecalis (GC 3059): 1 µg/mL (≈ 0.698 µM)
  MIC Enterococcus faecalis (GC 4552): 2 µg/mL (≈ 1.4 µM)
  MIC Enterococcus faecalis (GC 4553): 2 µg/mL (≈ 1.4 µM)
  MIC Enterococcus faecalis (GC 4554): 2 µg/mL (≈ 1.4 µM)
  MIC Enterococcus faecalis (GC 6189): 1 µg/mL (≈ 0.698 µM)
  MIC Enterococcus faecium (GC 2243): 2 µg/mL (≈ 1.4 µM)
  MIC Enterococcus faecium (GC 4556): 2 µg/mL (≈ 1.4 µM)
  MIC Enterococcus faecium (GC 4557): 1 µg/mL (≈ 0.698 µM)
[2]
  Anatomical Pathology (Day 10), Heart: 0
  Anatomical Pathology (Day 10), Kidney: 0
